Experimental data taken from ChEMBL document CHEMBL1201862, “PubChem BioAssay data set” (2004).
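Five concentrations, 48 hours, 96-well plates. GI50: concentration for 50% inhibition of growth.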 Activity calls are given as the source filed them. Rule as the data show it: active = GI50 up to about 1.1 µM and inactive = higher.

How the values were obtained:
Experiment in all cases: inhibition of tumour cell growth, NCI panel, 48 h
DU-145 = system: DU-145
NCI-H460 = system: NCI-H460
PC-3 = system: PC-3
CAKI-1 = system: CAKI-1
UO-31 = system: UO-31
SF-268 = system: SF-268
HT-29 = system: HT-29
A549 = system: A549
SN12C = system: SN12C
Malme-3M = system: Malme-3M
OVCAR-3 = system: OVCAR-3
HL-60 = system: HL-60
MDA-MB-231 = system: MDA-MB-231
SNB-75 = system: SNB-75
OVCAR-8 = system: OVCAR-8
SNB-19 = system: SNB-19
LOX IMVI = system: LOX IMVI
SK-MEL-28 = system: SK-MEL-28
MCF7 = system: MCF7
UACC-62 = system: UACC-62

Measured: GI50

Cc1cc(S(=O)(=O)Nc2nc(-c3ccccn3)n[nH]2)c(S)cc1Cl
inactive: DU-145 19.2 µM | NCI-H460 10.6 µM | PC-3 31.1 µM | CAKI-1 5.21 µM | UO-31 2.67 µM | SF-268 17.7 µM | HT-29 15.3 µM | A549 12.9 µM | SN12C 36.2 µM | Malme-3M 18.1 µM | OVCAR-3 17.2 µM | HL-60 16.1 µM | MDA-MB-231 29.2 µM | SNB-75 28.1 µM | OVCAR-8 11 µM | SNB-19 16.9 µM | LOX IMVI 27.2 µM | SK-MEL-28 35.1 µM | MCF7 31.3 µM | UACC-62 7.96 µM

CCC1CC(=O)N(SCC(N)C(=O)O)C1=O (stereo not given)
inactive: DU-145 > 100 µM | NCI-H460 > 100 µM | PC-3 > 100 µM | CAKI-1 > 100 µM | UO-31 > 100 µM | SF-268 > 100 µM | HT-29 > 100 µM | A549 > 100 µM | SN12C > 100 µM | Malme-3M > 100 µM | OVCAR-3 > 100 µM | HL-60 > 100 µM | MDA-MB-231 > 100 µM | SNB-75 > 100 µM | OVCAR-8 > 100 µM | SNB-19 > 100 µM | LOX IMVI > 100 µM | SK-MEL-28 > 100 µM | MCF7 > 100 µM | UACC-62 > 100 µM

COC(=O)[C@]1(c2cc3ccccc3[nH]2)CC2CN(CC(=O)N(C)OC)C1C1OC(C)(C)OC21 (stereo not given in full)
inactive: DU-145 > 100 µM | NCI-H460 39 µM | PC-3 42.5 µM | CAKI-1 54.2 µM | UO-31 37.5 µM | SF-268 > 100 µM | HT-29 61.9 µM | A549 33.3 µM | SN12C 55 µM | Malme-3M > 100 µM | OVCAR-3 41.8 µM | HL-60 27.2 µM | MDA-MB-231 31.6 µM | SNB-75 > 100 µM | OVCAR-8 75.3 µM | SNB-19 92.9 µM | LOX IMVI 59.7 µM | SK-MEL-28 > 100 µM | MCF7 36.1 µM | UACC-62 61.7 µM

O=C(O)CCN(CCC(=O)O)c1ccc(/C=C2\SC(=S)NC2=O)cc1
inactive: DU-145 > 100 µM | NCI-H460 > 100 µM | PC-3 > 100 µM | CAKI-1 > 100 µM | UO-31 > 100 µM | SF-268 > 100 µM | HT-29 > 100 µM | A549 > 100 µM | SN12C > 100 µM | Malme-3M 1.48 µM | OVCAR-3 > 100 µM | HL-60 > 100 µM | MDA-MB-231 > 100 µM | SNB-75 > 100 µM | OVCAR-8 > 100 µM | SNB-19 > 100 µM | LOX IMVI > 100 µM | SK-MEL-28 > 100 µM | MCF7 > 100 µM | UACC-62 > 100 µM

Oc1ccc(SCc2cc(O)ccc2O)cc1
inactive: DU-145 24.7 µM | NCI-H460 28.9 µM | PC-3 6.1 µM | CAKI-1 6.14 µM | UO-31 6.05 µM | SF-268 9.04 µM | HT-29 36 µM | A549 41.3 µM | SN12C 10.2 µM | Malme-3M 19.5 µM | OVCAR-3 7.69 µM | HL-60 2.85 µM | MDA-MB-231 16.5 µM | SNB-75 20.9 µM | OVCAR-8 16.5 µM | SNB-19 23.7 µM | LOX IMVI 16.6 µM | SK-MEL-28 17.7 µM | MCF7 12.6 µM | UACC-62 17.1 µM

C[C@@H]1[C@@H](C)C(c2ccccc2)O[Si]1(C(C)(C)C)C(C)(C)C (stereo not given in full)
inactive: DU-145 17.6 µM | NCI-H460 17.4 µM | PC-3 17.1 µM | CAKI-1 17.1 µM | UO-31 17.2 µM | SF-268 25.2 µM | HT-29 15.2 µM | A549 16.6 µM | SN12C 17.4 µM | Malme-3M 9.71 µM | OVCAR-3 16.5 µM | HL-60 > 10 µM | MDA-MB-231 16.9 µM | SNB-75 16 µM | OVCAR-8 17.8 µM | SNB-19 13.8 µM | LOX IMVI 16.9 µM | SK-MEL-28 24.9 µM | MCF7 18.1 µM | UACC-62 19.1 µM

C=C(COC(=O)C(C)C)[C@H]1Oc2ccc(C(C)=O)cc2[C@@H]1OC(=O)C(C)C
inactive: DU-145 > 100 µM | NCI-H460 > 100 µM | PC-3 > 100 µM | CAKI-1 > 100 µM | UO-31 > 100 µM | SF-268 > 100 µM | HT-29 > 100 µM | A549 > 100 µM | SN12C > 100 µM | Malme-3M > 100 µM | OVCAR-3 > 100 µM | HL-60 53.6 µM | MDA-MB-231 > 100 µM | SNB-75 > 100 µM | OVCAR-8 > 100 µM | SNB-19 > 100 µM | LOX IMVI > 100 µM | SK-MEL-28 > 100 µM | MCF7 > 100 µM | UACC-62 > 100 µM

O=P1(Cc2ccccc2)N(Cc2ccccc2)[C@@H]2CCCC[C@H]2N1Cc1ccccc1
inactive: DU-145 12.6 µM | NCI-H460 8.07 µM | PC-3 4.18 µM | CAKI-1 10.4 µM | UO-31 6.52 µM | SF-268 11.1 µM | HT-29 5.32 µM | A549 6.17 µM | SN12C 10.4 µM | Malme-3M 17.9 µM | OVCAR-3 7.23 µM | HL-60 4.67 µM | MDA-MB-231 10.6 µM | SNB-75 6.79 µM | OVCAR-8 10 µM | SNB-19 10.6 µM | LOX IMVI 12.2 µM | SK-MEL-28 16.8 µM | MCF7 6.89 µM | UACC-62 7.74 µM

Cc1cc(S(=O)(=O)Nc2nnc3c(Cl)cc(C(F)(F)F)cn23)c(S)cc1Cl
inactive: DU-145 > 91.8 µM | NCI-H460 41.8 µM | PC-3 69.3 µM | CAKI-1 > 89.3 µM | UO-31 30.2 µM | SF-268 > 79.3 µM | HT-29 37.2 µM | A549 51.6 µM | SN12C > 96.6 µM | Malme-3M 91 µM | OVCAR-3 49.9 µM | HL-60 > 100 µM | MDA-MB-231 > 59.3 µM | SNB-75 4.88 µM | OVCAR-8 50.4 µM | SNB-19 25.1 µM | LOX IMVI > 86.3 µM | SK-MEL-28 > 100 µM | MCF7 > 61.1 µM | UACC-62 48.9 µM

CC(=O)N(CN1C(=O)CCC1C(=O)O)c1ccccc1Cl (stereo not given)
inactive: DU-145 > 100 µM | NCI-H460 > 100 µM | PC-3 > 100 µM | CAKI-1 > 100 µM | UO-31 > 100 µM | SF-268 > 100 µM | HT-29 > 100 µM | A549 > 100 µM | SN12C > 100 µM | Malme-3M > 100 µM | OVCAR-3 > 100 µM | HL-60 > 100 µM | MDA-MB-231 > 100 µM | SNB-75 > 100 µM | OVCAR-8 > 100 µM | SNB-19 > 100 µM | LOX IMVI > 100 µM | SK-MEL-28 > 100 µM | MCF7 > 100 µM | UACC-62 > 100 µM

CSc1nc(SC)c2c(C)cn(COCCOC(=O)c3ccccc3)c2n1
inactive: DU-145 69.8 µM | NCI-H460 88.5 µM | PC-3 74.5 µM | CAKI-1 > 100 µM | UO-31 44.3 µM | SF-268 > 100 µM | HT-29 > 100 µM | A549 > 100 µM | SN12C > 100 µM | Malme-3M > 100 µM | OVCAR-3 > 100 µM | HL-60 36.7 µM | MDA-MB-231 > 100 µM | SNB-75 50.2 µM | OVCAR-8 > 100 µM | SNB-19 > 100 µM | LOX IMVI 58.2 µM | SK-MEL-28 > 100 µM | MCF7 76.4 µM | UACC-62 > 100 µM

COC(=O)[C@H](C)NC(=O)C1(CNC(=O)[C@H](C)NC(=O)OC(C)(C)C)Cc2ccccc2-c2ccccc2C1
inactive: DU-145 14.9 µM | NCI-H460 19.7 µM | PC-3 23.8 µM | CAKI-1 12.2 µM | UO-31 4.67 µM | SF-268 19.6 µM | HT-29 17.4 µM | A549 19.4 µM | SN12C 17.7 µM | Malme-3M 19.1 µM | OVCAR-3 17.5 µM | HL-60 19.5 µM | MDA-MB-231 17.9 µM | SNB-75 23.4 µM | OVCAR-8 6.78 µM | SNB-19 > 56.9 µM | LOX IMVI 3.85 µM | SK-MEL-28 > 47.3 µM | MCF7 37.5 µM | UACC-62 16.7 µM

OC(c1cc(C(O)(C(F)(F)F)C(F)(F)F)ncn1)(C(F)(F)F)C(F)(F)F
inactive: DU-145 > 10 µM | NCI-H460 > 10 µM | PC-3 > 10 µM | CAKI-1 > 10 µM | UO-31 > 10 µM | SF-268 > 10 µM | HT-29 > 10 µM | A549 > 10 µM | SN12C > 10 µM | Malme-3M > 10 µM | OVCAR-3 > 10 µM | HL-60 > 10 µM | MDA-MB-231 > 10 µM | SNB-75 > 10 µM | OVCAR-8 > 10 µM | SNB-19 > 10 µM | LOX IMVI > 10 µM | SK-MEL-28 > 10 µM | MCF7 > 10 µM | UACC-62 > 10 µM

CC1(C)S[C@@H]2[C@H](NC(=O)C3(N)CCCCC3)C(=O)N2[C@H]1C(=O)O [CYCLACILLIN]
inactive: DU-145 > 100 µM | NCI-H460 > 100 µM | PC-3 > 100 µM | CAKI-1 > 100 µM | UO-31 > 100 µM | SF-268 > 100 µM | HT-29 > 100 µM | A549 > 100 µM | SN12C > 100 µM | Malme-3M > 100 µM | OVCAR-3 > 100 µM | HL-60 > 100 µM | MDA-MB-231 > 100 µM | SNB-75 > 100 µM | OVCAR-8 > 100 µM | SNB-19 > 100 µM | LOX IMVI > 100 µM | SK-MEL-28 > 100 µM | MCF7 > 100 µM | UACC-62 > 100 µM
